Results as given in patent publication US7211587B2, “Quinoline derivatives and quinazoline derivatives having azolyl group” (Kirin Beer Kabushiki Kaisha, priority 2001, dated 2007).
Where a name gives a salt, the structure may show the parent alone.

How the values were obtained:
[1] = system: Human pulmonary carcinoma cells (LC-6); test: Antitumor activity against human pulmonary carcinoma cells (LC-6) using nude rats; type: in vivo; conditions: LC-6 in nude rats
Experimental: (§1) Human pulmonary carcinoma cells (LC-6) (obtained from Central Laboratories for Experimental Animals) were transplanted into nude rats. When the tumor volume became about 700 mm^3, the rats were grouped so that each group consisted of four rats and the average tumor volume was even among the groups. A test compound was orally administered at doses of 0.2, 0.5, 1.0, and 5.0 mg/kg to the test groups every day once a day for 14 days, while only a vehicle was administered to a control group in the manner as in the test groups. The tumor growth inhibition rate (TGIR) was calculated as follows: The tumor growth inhibition rate (TGIR)=(1−TX/CX)×100 wherein CX represents the volume of tumor at day X for the control group when the tumor volume at the first day of the administration was presumed to be 1; and TX represents the tumor volume for test compound administration groups.

[2] = system: Human colon carcinoma cells (LS174T); test: Antitumor activity against human colon carcinoma cells (LS174T) using nude mice; type: in vivo; conditions: LS174T (printed LS17) in nude mice, oral 5 mg/kg once a day for 9 days
Experimental: (§2) Human colon carcinoma cells (LS174T) (obtained from American Type Culture Collection) or human pulmonary carcinoma cells (A549) (obtained from RIKEN Cell Bank) were transplanted into nude mice. When the tumor volume became about 150 mm^3, the mice were grouped so that each group consisted of four mice and the average tumor volume was even among the groups. A test compound was orally administered at doses of 5 and 20 mg/kg to the test groups every day once a day for 9 days, while only a vehicle was administered to a control group in the manner as in the test groups. The tumor growth inhibition rate (TGIR) was calculated as follows: The tumor growth inhibition rate (TGIR)=(1−TX/CX)×100 wherein CX represents the volume of tumor at day X for the control group when the tumor volume at the first day of the administration was presumed to be 1; and TX represents the tumor volume for test compound administration groups.

[3] = system: Human pulmonary carcinoma cells (LC-6); test: Antitumor activity against human pulmonary carcinoma cells (LC-6) transplanted into nude mice; type: in vivo; conditions: Mus musculus, 216 h; LC-6 in nude mice, oral 20 mg/kg once a day for 9 days; read-out: TGIR (tumor growth inhibition rate)
Experimental: as §1, with “mice.” for “rats.”, “100” for “700”, “mice” for “rats”, “a dose” for “doses”, “20” for “0.2, 0.5, 1.0, and 5.0”, “9” for “14”

[4] = system: human pulmonary carcinoma cells (A549); test: Antitumor activity against human pulmonary carcinoma cells (A549) using nude mice; type: in vivo; conditions: A549 in nude mice, oral 20 mg/kg once a day for 9 days
Experimental: as §2

human KDR = biological target: T1, human KDR (Homo sapiens, UniProt P35968); test: Inhibitory activity against KDR phosphorylation by ELISA (VEGF-stimulated NIH 3T3 cells expressing human KDR); type: cell-based; conditions: VEGF 100 ng/ml, compound 1 hr, read-out: IC50 (inhibition of KDR phosphorylation)
T1 construct: expressed in transfected cells; host or cells: NIH 3T3 cells (mouse fibroblasts) stably expressing human KDR
T1 sequence (P35968 20-1356): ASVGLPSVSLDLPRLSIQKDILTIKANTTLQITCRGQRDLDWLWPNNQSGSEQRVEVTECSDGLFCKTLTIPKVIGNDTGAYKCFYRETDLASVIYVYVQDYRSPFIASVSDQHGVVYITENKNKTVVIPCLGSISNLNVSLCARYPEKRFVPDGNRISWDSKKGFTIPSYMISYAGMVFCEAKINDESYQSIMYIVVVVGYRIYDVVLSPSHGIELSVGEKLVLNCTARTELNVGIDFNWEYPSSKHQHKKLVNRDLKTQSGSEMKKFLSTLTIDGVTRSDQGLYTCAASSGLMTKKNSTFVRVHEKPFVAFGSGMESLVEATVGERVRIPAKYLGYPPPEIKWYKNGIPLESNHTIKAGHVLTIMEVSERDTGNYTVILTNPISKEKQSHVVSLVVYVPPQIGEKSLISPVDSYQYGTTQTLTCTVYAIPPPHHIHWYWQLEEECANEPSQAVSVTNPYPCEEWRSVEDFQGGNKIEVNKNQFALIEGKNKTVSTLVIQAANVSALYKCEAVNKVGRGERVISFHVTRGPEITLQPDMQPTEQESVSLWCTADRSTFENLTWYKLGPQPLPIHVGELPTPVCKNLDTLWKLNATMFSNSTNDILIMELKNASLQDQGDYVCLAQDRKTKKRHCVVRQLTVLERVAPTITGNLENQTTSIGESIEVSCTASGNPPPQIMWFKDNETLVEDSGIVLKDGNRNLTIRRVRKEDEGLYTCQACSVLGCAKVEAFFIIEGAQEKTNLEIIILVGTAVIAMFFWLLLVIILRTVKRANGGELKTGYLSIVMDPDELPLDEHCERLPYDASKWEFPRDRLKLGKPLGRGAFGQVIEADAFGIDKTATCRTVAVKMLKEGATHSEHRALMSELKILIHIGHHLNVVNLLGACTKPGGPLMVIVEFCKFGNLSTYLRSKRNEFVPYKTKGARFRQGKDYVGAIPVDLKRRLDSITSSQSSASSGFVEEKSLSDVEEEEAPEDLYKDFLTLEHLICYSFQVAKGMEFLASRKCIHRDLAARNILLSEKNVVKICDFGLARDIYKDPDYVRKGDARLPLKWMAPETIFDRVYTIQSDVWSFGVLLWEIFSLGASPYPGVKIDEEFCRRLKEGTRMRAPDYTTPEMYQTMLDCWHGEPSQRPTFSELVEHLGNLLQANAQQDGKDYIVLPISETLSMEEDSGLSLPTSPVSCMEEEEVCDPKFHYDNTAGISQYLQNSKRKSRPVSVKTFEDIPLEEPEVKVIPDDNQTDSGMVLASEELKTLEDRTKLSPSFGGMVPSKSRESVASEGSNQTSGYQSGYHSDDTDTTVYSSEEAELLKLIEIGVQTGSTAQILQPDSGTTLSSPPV
Experimental: The harvested cells were inoculated into wells of a collagen-type one-coat 96-well flat-bottom plate, each containing the same medium, in an amount of 1.5×10^4 per well, followed by cultivation at 37° C. overnight. The medium was then replaced by a DMEM medium containing 0.1% fetal calf serum. A solution of a test compound in dimethyl sulfoxide was added to each well, and the cultivation was continued at 37° C. for additional one hr. A human recombinant vascular endothelial growth factor (hereinafter abbreviated to “VEGF”) was added to a final concentration of 100 ng/ml, and the stimulation of cells was carried out at 37° C. for 2 min. The medium was removed, the cells were washed with phosphate buffered saline (pH 7.4), and 50 μl of a solubilization buffer (20 mM HEPES (pH 7.4), 150 mM NaCl, 0.2% Triton X-100, 10% glycerol, 5 mM sodium orthovanadylate, 5 mM disodium ethylenediaminetetraacetate, and 2 mM Na4P2O7) was then added thereto. The mixture was shaken at 4° C. for 2 hr to prepare a cell extract.
Separately, phosphate buffered saline (50 μl, pH 7.4) containing 5 μg/ml of an anti-phospho-tyrosine antibody (PY20; purchased from Transduction Laboratories) was added to a microplate for ELISA (Maxisorp; purchased from NUNC), followed by standing at 4° C. overnight to form a solid phase on the wells. After washing of the plate, 300 μl of a blocking solution was added, followed by standing at room temperature for 2 hr to perform blocking. After washing, the whole quantity of the cell extract was transferred to the wells, and the plate was then allowed to stand at 4° C. overnight. After washing, an anti-KDR antibody (purchased from Santa Cruz) was allowed to react at room temperature for one hr, and, after washing, a peroxidase-labeled anti-rabbit Ig antibody (purchased from Amersham) was allowed to react at room temperature for one hr. After washing, a chromophoric substrate for peroxidase (purchased from Sumitomo Bakelite Co., Ltd.) was added thereto to initiate a reaction. After a suitable level of color development, a reaction termination solution was added to stop the reaction, and the absorbance at 450 nm was measured with a microplate reader. The KDR phosphorylation activity for each well was determined by presuming the absorbance with the addition of VEGF and without the addition of the medicament to be 100% KDR phosphorylation activity and the absorbance without the addition of the medicament and VEGF to be 0% KDR phosphorylation activity.

[5] = oral 5 mg/kg once a day for 14 days

Row | IC50 (human KDR) [nM] | Structure (SMILES) | inhibition in vivo at 20 mg/kg [3] [%] | further results
1 | 0.4 | COc1cc2nccc(Oc3ccc(NC(=O)Nc4ncc(C)s4)c(F)c3)c2cc1OC [Ex. 21, N-{4-[(6,7-Dimethoxy-4-quinolyl)oxy]-2-fluorophenyl}-N′-(5-methyl-1.3-thiazol-2-yl)urea hydrochloride] | 66.6 | –
2 | < 1 | COc1cc2nccc(Oc3ccc(NC(=O)Nc4nc(C)c(C)s4)c(F)c3)c2cc1OC [Ex. 23, N-{4-[(6,7-Dimethoxy-4-quinolyl)oxy]-2-fluorophenyl}-N′-(4,5-dimethyl-1,3-thiazol-2-yl)urea] | 51.7 | –
3 | 1 | COc1cc2nccc(Oc3ccc(NC(=O)Nc4nc(C)c(C)s4)c(Cl)c3)c2cc1OC [Ex. 24, N-{2-Chloro-4-[(6,7-dimethoxy-4-quinolyl)oxy]phenyl}-N′-(4,5-dimethyl-1,3-thiazol-2-yl)urea] | 39.8 | –
4 | 0.3 | COc1cc2nccc(Oc3ccc(NC(=O)Nc4nc(C)cs4)c(F)c3)c2cc1OC.Cl [Ex. 28, N-{4-[(6,7-Dimethoxy-4-quinolyl)oxy]-2-fluorophenyl}-N′-(4-methyl-1,3-thiazol-2-yl)urea hydrochloride] | 66.3 | TGIR (tumor growth inhibition rate) [1, 5]: 59%
5 | 49.4 | CCOC(=O)Cc1csc(NC(=O)Nc2ccc(Oc3ccnc4cc(OC)c(OC)cc34)cc2F)n1 [Ex. 29, Ethyl 2-{2-[({4-[(6,7-dimethoxy-4-quinolyl)oxy]-2-fluoroanilino}carbonyl)amino]-1,3-thiazol-4-yl}acetate] | 66.1 | –
6 | 6.3 | COc1cc2nccc(Oc3ccc(NC(=O)Nc4nnc(C(F)(F)F)s4)cc3)c2cc1OC [Ex. 50, N-{4-[(6,7-Dimethoxy-4-quinolyl)oxy]phenyl}-N′-[5-(trifluoromethyl)-1,3,4-thiadiazol-2-yl]urea] | 11.9 | –
7 | 3.7 | COc1cc2nccc(Oc3ccc(NC(=O)Nc4nnc(C(F)(F)F)s4)c(F)c3)c2cc1OC [Ex. 51, N-{4-[(6,7-Dimethoxy-4-quinolyl)oxy]-2-fluorophenyl}-N′-[5-(trifluoromethyl)-1,3,4-thiadiazol-2-yl]urea] | 45.6 | –
8 | 36 | COc1cc2nccc(Oc3ccc(NC(=O)Nc4nnc(C)s4)c(F)c3)c2cc1OC [Ex. 58, N-{4-[(6,7-Dimethoxy-4-quinolyl)oxy]-2-fluorophenyl}-N′-(5-methyl-1,3,4-thiadiazol-2-yl)urea] | 13.4 | –
9 | 4.1 | COc1cc2nccc(Oc3cc(C)c(NC(=O)Nc4nnc(C5CC5)s4)cc3C)c2cc1OC [Ex. 69, N-(5-Cyclopropyl-1,3,4-thiadiazol-2-yl)-N′-{4-[(6,7-dimethoxy-4-quinolyl)oxy]-2,5-dimethylphenyl}-urea] | 23.3 | –

Second part, the molecule before the results:

Row | Structure (SMILES) | IC50 (human KDR) [nM] | inhibition in vivo at 20 mg/kg [3] [%] | further results
10 | COc1cc2nccc(Oc3ccc(NC(=O)Nc4cc(C)on4)c(Cl)c3)c2cc1OC [Ex. 4, N-{2-Chloro-4-[(6,7-dimethoxy-4-quinolyl)oxy]phenyl}-N′-(5-methyl-3-isoxazolyl)urea] | – | 55.4 | TGIR (tumor growth inhibition rate) ([1]; oral 0.2 mg/kg once a day for 14 days): 62%; TGIR (tumor growth inhibition rate) ([1]; oral 0.5 mg/kg once a day for 14 days): 80%; TGIR (tumor growth inhibition rate) ([1]; oral 1 mg/kg once a day for 14 days): 88%; TGIR (tumor growth inhibition rate) [2]: 65%; TGIR (tumor growth inhibition rate) [4]: 65%
11 | COc1cc2nccc(Oc3ccc(NC(=O)Nc4nc(C)cs4)c(Cl)c3)c2cc1OC [Ex. 22, N-{2-Chloro-4-[(6,7-dimethoxy-4-quinolyl)oxy]phenyl}-N′-(4-methyl-1,3-thiazol-2-yl)urea] | < 1 | 43.8 | –
12 | COc1cc2nccc(Oc3ccc(NC(=O)Nc4nc(C)c(C)s4)cc3Cl)c2cc1OC [Ex. 25, N-{3-Chloro-4-[(6,7-dimethoxy-4-quinolyl)oxy]phenyl}-N′-(4,5-dimethyl-1,3-thiazol-2-yl)urea] | 1.9 | 18.8 | –
13 | COc1cc2nccc(Oc3ccc(NC(=O)Nc4nccs4)c(F)c3)c2cc1OC.Cl [Ex. 27, N-{4-[(6,7-Dimethoxy-4-quinolyl)oxy]-2-fluorophenyl}-N′-(1,3-thiazol-2-yl)urea hydrochloride] | 0.3 | – | TGIR (tumor growth inhibition rate) [1, 5]: 82%
14 | COc1cc2ncnc(Oc3ccc(NC(=O)Nc4nccs4)c(Cl)c3)c2cc1OC [Ex. 38, N-{2-Chloro-4-[(6,7-dimethoxy-4-quinazolinyl)oxy]phenyl}-N′-(1,3-thiazol-2-yl)urea] | < 1 | 92 | TGIR (tumor growth inhibition rate) [1, 5]: 78%
15 | COc1cc2ncnc(Oc3ccc(NC(=O)Nc4ncc(C)s4)c(Cl)c3)c2cc1OC [Ex. 39, N-{2-Chloro-4-[(6,7-dimethoxy-4-quinazolinyl)oxy]phenyl}-N′-(5-methyl-1,3-thiazol-2-yl)urea] | < 1 | 64 | –
16 | COc1cc2ncnc(Oc3ccc(NC(=O)Nc4nc(C)c(C)s4)c(Cl)c3)c2cc1OC [Ex. 40, N-{2-Chloro-4-[(6,7-dimethoxy-4-quinazolinyl)oxy]phenyl}-N′-(4,5-dimethyl-1,3-thiazol-2-yl)urea] | < 1 | 34.2 | –
17 | COc1cc2nccc(Oc3ccc(NC(=O)Nc4nnc(C(F)(F)F)s4)cc3F)c2cc1OC [Ex. 52, N-{4-[(6,7-Dimethoxy-4-quinolyl)oxy]-3-fluorophenyl}-N′-[5-(trifluoromethyl)-1,3,4-thiadiazol-2-yl]urea] | 13 | 20.7 | –
18 | COc1cc2nccc(Oc3ccc(NC(=O)Nc4nnc(C(F)(F)F)s4)c(C)c3C)c2cc1OC [Ex. 53, N-{4-[(6,7-Dimethoxy-4-quinolyl)oxy]-2,3-dimethylphenyl}-N′-[5-(trifluoromethyl)-1,3,4-thiadiazol-2-yl]urea] | 1.2 | 14.4 | –
